Assay results from US4393225A, “AI-77 Compounds and pharmaceutically acceptable salts thereof” (Asahi Kasei Kogyo Kabushiki Kaisha, priority 1979, dated 1983).

System: ulcer
Assay: Anti-ulcer test (restraint and water immersion ulcer in rats, i.p.)
Format: in vivo, Male Wistar rats
Conditions: Rattus norvegicus, ip, read-out: % Inhibition of Ulcer
In short: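 Male Wistar rats (~150 g), fasted 24 h, dosed i.p. with compound in physiological saline; 1 h later restrained and immersed to xiphisternum in 21 °C water for 6 h. Stomachs examined microscopically, ulcers scored 0–3, and percent inhibition calculated.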

Row | SMILES | inhibition in vivo at 25 mg/kg | inhibition in vivo at 50 mg/kg
1 | CCNC(CC(N)=O)C(O)C(OC)C(=O)NC(CC(C)C)C1Cc2cccc(OCC)c2C(=O)O1 (centres unmarked) [VII-16-1] | 56% | –
2 | CCCCCOC(C)CCNC(=O)CC(N)C(O)C(O)C(=O)NC(CC(C)C)C1Cc2cccc(O)c2C(=O)O1 (centres unmarked) [VII-1-27] | 89% | –
3 | CC(C)CC(NC(=O)C(O)C1OC(=O)CC1N)C1Cc2cccc(OCCCBr)c2C(=O)O1 (centres unmarked) [IIIa-13-19] | – | 100%
4 | CC(C)CC(=O)NC1CC(=O)OC1C(O)C(=O)NC(CC(C)C)C1Cc2cccc(O)c2C(=O)O1 (centres unmarked) [IIIa-1-5] | – | 66%

Same assay, conditions: Rattus norvegicus, ip; 25 mg/kg i.p.; read-out: % Inhibition of Ulcer

Row | SMILES | inhibition in vivo at 25 mg/kg
5 | COc1cccc2c1C(=O)OC(C(CC(C)C)NC(=O)C(O)C(O)C(N)CC(N)=O)C2 (centres unmarked) [VII-5-1] | 78%
6 | CC(C)CC(NC(=O)C(O)C(O)C(N)CC(=O)NCc1cccc(Cl)c1)C1Cc2cccc(O)c2C(=O)O1 (centres unmarked) [VII-1-20] | 94%
7 | CCOc1cccc2c1C(=O)OC(C(CC(C)C)NC(=O)C(O)C(O)C(N)CC(=O)Nc1ccc(C)cc1)C2 (centres unmarked) [VII-5-4] | 78%
8 | CCC(C)CCCCCNC(=O)CC(N)C(O)C(O)C(=O)NC(CC(C)C)C1Cc2cccc(O)c2C(=O)O1 (centres unmarked) [VII-1-31] | 83%
9 | CC(C)CCCC(C)CCCC(C)CCCCNC(=O)CC(N)C(O)C(O)C(=O)NC(CC(C)C)C1Cc2cccc(O)c2C(=O)O1 (centres unmarked) [VII-1-36] | 83%
10 | CCNC(=O)CC(NCC)C(O)C(OC(=O)CC)C(=O)NC(CC(C)C)C1Cc2cccc(OC)c2C(=O)O1 (centres unmarked) [VII-15-4] | 44%
11 | CCNC(CC(N)=O)C(O)C(O)C(=O)NC(CC(C)C)C1Cc2cccc(OC)c2C(=O)O1 (centres unmarked) [VII-14-2] | 83%
12 | CCCCCCCCCCCCCCCCCC(=O)Oc1cccc2c1C(=O)OC(C(CC(C)C)NC(=O)C(OC)C(O)C(N)CC(N)=O)C2 (centres unmarked) [VII-9-2] | 56%
13 | CCCCOC(C(=O)NC(CC(C)C)C1Cc2cccc(O)c2C(=O)O1)C(O)C(CC(N)=O)NCC (centres unmarked) [VII-17-1] | 78%
14 | CCOc1cccc2c1C(=O)OC(C(CC(C)C)NC(=O)C(OC(=O)CC)C(O)C(N)CC(N)=O)C2 (centres unmarked) [VII-6-3] | 66%
15 | CCCC=Cc1ccc(CNC(=O)CC(N)C(O)C(O)C(=O)NC(CC(C)C)C2Cc3cccc(O)c3C(=O)O2)cc1 (centres unmarked) [VII-1-41] | 83%
16 | CCNC(CC(N)=O)C(O)C(O)C(=O)NC(CC(C)C)C1Cc2cccc(OC(=O)CC)c2C(=O)O1 (centres unmarked) [VII-13-3] | 83%
17 | CCCCCCCCCCCCCCCCCC(=O)Oc1cccc2c1C(=O)OC(C(CC(C)C)NC(=O)C(O)C(O)C(N)CC(N)=O)C2 (centres unmarked) [VII-4-3] | 78%
18 | CCOc1cccc2c1C(=O)OC(C(CC(C)C)NC(=O)C(OC(C)=O)C(O)C(N)CC(N)=O)C2 (centres unmarked) [VII-6-1] | 66%

Same assay, conditions: Rattus norvegicus, ip; 50 mg/kg i.p.; read-out: % Inhibition of Ulcer

Row | SMILES | inhibition in vivo at 50 mg/kg
19 | Cc1ccc(COc2cccc3c2C(=O)OC(C(CC(C)C)NC(=O)C(O)C2C=CC(=O)O2)C3)cc1 (centres unmarked) [IVa-4-21] | 33%
20 | CC(C)CC(NC(=O)C(O)C1OC(=O)CC1NC(=O)c1ccc(O)cc1)C1Cc2cccc(O)c2C(=O)O1 (centres unmarked) [IIIa-1-35] | 66%
21 | CC(C)CNC1CC(=O)OC1C(O)C(=O)NC(CC(C)C)C1Cc2cccc(OCC(C)C)c2C(=O)O1 (centres unmarked) [IIIa-22-4] | 94%
22 | CCOc1cccc2c1C(=O)OC(C(CC(C)C)NC(=O)C(O)C1OC(=O)CC1NC(=O)c1cn(C(C)=O)c3ccccc13)C2 (centres unmarked) [IIIa-5-34] | 33%
23 | CCOc1cccc2c1C(=O)OC(C(CC(C)C)NC(=O)C(O)C1OC(=O)CC1NC(=O)C1CC1)C2 (centres unmarked) [IIIa-5-18] | 44%
24 | COC(C(=N)NC(CC(C)C)C1Cc2cccc(OC(C)=O)c2C(=O)O1)C(O)C(CC(=O)O)NC(C)C (centres unmarked) [Vb-27-2] | 66%
25 | CCOc1cccc2c1C(=O)OC(C(CC(C)C)NC(=O)C(O)C1OC(=O)CC1NC(=O)c1ccc3ccccc3c1)C2 (centres unmarked) [IIIa-5-17] | 33%
26 | CC(C)CC(NC(=O)C(O)C1OC(=O)CC1NC(=O)CC1CC1)C1Cc2cccc(O)c2C(=O)O1 (centres unmarked) [IIIa-1-79] | 66%
27 | CCOc1cccc2c1C(=O)OC(C(CC(C)C)NC(=O)C(OC(C)=O)C1OC(=O)CC1N)C2 (centres unmarked) [IIIa-14-1] | 56%
28 | CCCCN=C(NC(CC(C)C)C1Cc2cccc(O)c2C(=O)O1)C(O)C(O)C(CC(=O)O)NCCCC (centres unmarked) [Vb-10-3] | 89%
29 | CCC(=O)OC(C(=O)NC(CC(C)C)C1Cc2cccc(O)c2C(=O)O1)C1OC(=O)CC1NC(C)=O (centres unmarked) [IIIa-2-10] | 44%
30 | CCCC=Cc1ccc(C(=O)NC2CC(=O)OC2C(O)C(=O)NC(CC(C)C)C2Cc3cccc(OCC)c3C(=O)O2)cc1 (centres unmarked) [IIIa-5-74] | 44%
31 | CC(C)CC(NC(=O)C(O)C1OC(=O)CC1NC(=O)C1CCC=CO1)C1Cc2cccc(O)c2C(=O)O1 (centres unmarked) [IIIa-1-59] | 66%
32 | CCOC(C(=O)NC(CC(C)C)C1Cc2cccc(OC(=O)C(Cl)(Cl)Cl)c2C(=O)O1)C1OC(=O)CC1N (centres unmarked) [IIIa-17-6] | 56%
33 | CC(C)CC(NC(=O)C(O)C1OC(=O)CC1N)C1Cc2cccc(OC3CC3)c2C(=O)O1 (centres unmarked) [IIIa-13-10] | 94%
34 | CC(C)CC(NC(=O)C(O)C1OC(=O)CC1NC(=O)C(Cl)(Cl)Cl)C1Cc2cccc(OCCCC3CCCC3)c2C(=O)O1 (centres unmarked) [IIIa-5-124] | 33%
35 | CC(C)CC(NC(=O)C(O)C1OC(=O)CC1NCCCCCO)C1Cc2cccc(O)c2C(=O)O1 (centres unmarked) [IIIa-18-52] | 94%
36 | CC(C)CC(NC(=O)C(O)C1C=CC(=O)O1)C1Cc2cccc(OCC3CCCCC3)c2C(=O)O1 (centres unmarked) [IVa-4-11] | 33%
37 | CCOc1cccc2c1C(=O)OC(C(CC(C)C)NC(=O)C(O)C1OC(=O)CC1NC(=O)C1CCCCCCC1)C2 (centres unmarked) [IIIa-5-60] | 44%
38 | CC(C)CC(NC(=O)C(OC(=O)C(Cl)(Cl)Cl)C1OC(=O)CC1NC(=O)C(Cl)(Cl)Cl)C1Cc2cccc(O)c2C(=O)O1 (centres unmarked) [IIIa-2-1] | 44%
39 | CCCCNC(CC(=O)O)C(O)C(O)C(=N)NC(CC(C)C)C1Cc2cccc(O)c2C(=O)O1 (centres unmarked) [Vb-10-2] | 100%
40 | COc1cccc2c1C(=O)OC(C(CC(C)C)NC(=O)C(O)C1C=CC(=O)O1)C2 (centres unmarked) [IVa-4-1] | 44%
41 | COc1cccc2c1C(=O)OC(C(CC(C)C)NC(=O)C(O)C1OC(=O)CC1NC(=O)C(Cl)(Cl)Cl)C2 (centres unmarked) [IIIa-5-7] | 44%
42 | CCNC(CC(=O)O)C(O)C(OC(C)=O)C(=N)NC(CC(C)C)C1Cc2cccc(O)c2C(=O)O1 (centres unmarked) [Vb-11-1] | 78%

Row | SMILES | inhibition in vivo at 50 mg/kg
43 | CCOc1cccc2c1C(=O)OC(C(CC(C)C)NC(=O)C(O)C1OC(=O)CC1NC(=O)Cn1cnnn1)C2 (centres unmarked) [IIIa-5-72] | 44%
44 | Cc1ccc(C(C)C)cc2c(C(=O)NC3CC(=O)OC3C(O)C(=O)NC(CC(C)C)C3Cc4cccc(O)c4C(=O)O3)c(C)cc1-2 (centres unmarked) [IIIa-1-70] | 56%
45 | CC(C)CC(NC(=O)C(O)C1OC(=O)CC1NC(=O)CC1CCCCO1)C1Cc2cccc(O)c2C(=O)O1 (centres unmarked) [IIIa-1-24] | 66%
46 | CCOc1cccc2c1C(=O)OC(C(CC(C)C)NC(=O)C(O)C1OC(=O)CC1NC(=O)CC(C)C)C2 (centres unmarked) [IIIa-5-2] | 44%
47 | CC(C)CC(NC(=O)C(O)C1OC(=O)CC1NC(=O)Cn1cnnn1)C1Cc2cccc(O)c2C(=O)O1 (centres unmarked) [IIIa-1-75] | 66%
48 | CC(C)CC(NC(=O)C(O)C1OC(=O)CC1NC(=O)CCCCCCCCCO)C1Cc2cccc(O)c2C(=O)O1 (centres unmarked) [IIIa-1-78] | 66%
49 | CCOC(C(=O)NC(CC(C)C)C1Cc2cccc(O)c2C(=O)O1)C1OC(=O)CC1N (centres unmarked) [IIIa-16-7] | 72%
50 | CCCCCCCCC=CCCCCCCCC(=O)NC1CC(=O)OC1C(OC(C)=O)C(=O)NC(CC(C)C)C1Cc2cccc(O)c2C(=O)O1 (centres unmarked) [IIIa-2-5] | 33%
51 | CCCC=Cc1ccc(COc2cccc3c2C(=O)OC(C(CC(C)C)NC(=O)C(O)C2OC(=O)CC2NC(=O)CCC)C3)cc1 (centres unmarked) [IIIa-5-120] | 33%
52 | CC(=O)OC(C(=O)NC(CC(C)C)C1Cc2cccc(O)c2C(=O)O1)C1OC(=O)CC1NC(=O)c1ccc(OCCC(C)C)cc1 (centres unmarked) [IIIa-2-9] | 33%
53 | C/C=C/C(=O)NC1CC(=O)OC1C(O)C(=O)NC(CC(C)C)C1Cc2cccc(OCC)c2C(=O)O1 (centres unmarked) [IIIa-5-53] | 33%
54 | COc1cccc2c1C(=O)OC(C(CC(C)C)NC(=O)C(O)C1OC(=O)CC1N)C2 (centres unmarked) [IIIa-13-1] | 100%
55 | CCNC1CC(=O)OC1C(OC)C(=O)NC(CC(C)C)C1Cc2cccc(OCC)c2C(=O)O1 (centres unmarked) [IIIa-24-1] | 56%
56 | CCOc1cccc2c1C(=O)OC(C(CC(C)C)NC(=N)C(OC(C)=O)C(O)C(N)CC(=O)O)C2 (centres unmarked) [Vb-6-1] | 66%
57 | CC(=O)Oc1cccc2c1C(=O)OC(C(CC(C)C)NC(=O)C(O)C1OC(=O)CC1NC(=O)C(C)C)C2 (centres unmarked) [IIIa-4-2] | 44%
58 | CCCCCCCCCCCCCCCCCCOc1cccc2c1C(=O)OC(C(CC(C)C)NC(=O)C(O)C1OC(=O)CC1NC(=O)CCCCCC)C2 (centres unmarked) [IIIa-5-12] | 33%
59 | CCCCCC(=O)Oc1cccc2c1C(=O)OC(C(CC(C)C)NC(=O)C(O)C1C=CC(=O)O1)C2 (centres unmarked) [IVa-3-5] | 33%
60 | CC(C)CCOc1ccc(COc2cccc3c2C(=O)OC(C(CC(C)C)NC(=O)C(O)C2C=CC(=O)O2)C3)cc1 (centres unmarked) [IVa-4-24] | 33%
61 | CCNC(CC(=O)O)C(O)C(OC(=O)CC)C(=N)NC(CC(C)C)C1Cc2cccc(OC(=O)C(C)C)c2C(=O)O1 (centres unmarked) [Vb-12-1] | 56%
62 | CC(=O)OC(C(=O)NC(CC(C)C)C1Cc2cccc(O)c2C(=O)O1)C1OC(=O)CC1NC(=O)CC(C)C (centres unmarked) [IIIa-2-3] | 44%
63 | CCCCCCCCOc1cccc2c1C(=O)OC(C(CC(C)C)NC(=O)C(O)C1OC(=O)CC1NCCCCCCC)C2 (centres unmarked) [IIIa-22-12] | 72%
64 | CCCCCCC(=O)NC1CC(=O)OC1C(O)C(=O)NC(CC(C)C)C1Cc2cccc(O)c2C(=O)O1 (centres unmarked) [IIIa-1-8] | 66%
65 | CNC(CC(=O)O)C(O)C(OC)C(=N)NC(CC(C)C)C1Cc2cccc(OC(C)=O)c2C(=O)O1 (centres unmarked) [Vb-27-1] | 66%
